“Also recorded” adds a separate entry of the source. Where a name gives a salt, the structure may show the parent alone.
Tests used:
Type in all cases: physicochemical
[1] = Comparison of water solubility of crystals in hydrous toluene/acetonitrile; details: compared with monohydrate crystals of (1b) in the cis-form; water added to a 13% toluene/acetonitrile solution to change percentage water content
Procedure: Water was added to a 13% toluene/acetonitrile solution to change the percentage water content to compare water solubility between the monohydrate crystals of the compound represented by formula (1b) and the monohydrate crystals of the trans-isomer compound represented by formula (1b-trans).

[2] = Crystal form transformation (solid form stability) of crystal polymorphs; details: for transformation of anhydrous crystals to monohydrate crystals: stirring at 25° C., depending on the percentage water content of the mother liquor, oxalate
Procedure: The Form 2 anhydrous crystals were also found to be excellent in operability such as filtration performance. Powder x-ray diffraction diagrams of the Form 1 and Form 2 anhydrous crystals of compound (1) are shown in FIGS. 1 and 2, respectively, and their diffraction diagrams based on thermal analysis are shown in FIGS. 5 and 6, respectively.
Compound (1a) was treated with anhydrous oxalic acid in 6% hydrous acetonitrile to obtain two crystal polymorphs of monohydrate crystals of the title compound represented by formula (1b) (this production method is described in Example 3 below). Powder x-ray diffraction diagrams of the Form 1 and Form 2 monohydrate crystals are shown in FIGS. 3 and 4, respectively, and their diffraction diagrams based on thermal analysis are shown in FIGS. 7 and 8, respectively.

[3] = Hygroscopicity of crystal polymorphs; details: among the crystal polymorphs of anhydrous crystals of compound (1)

CN(C)C(=O)[C@H]1CC[C@@H](N)[C@H](NC(=O)OC(C)(C)C)C1 [(1b-trans)]
water solubility [1]: highly water-soluble; also recorded: more water-soluble

CN(C)C(=O)[C@H]1CC[C@H](N)[C@H](NC(=O)OC(C)(C)C)C1 [Form 1 anhydrous crystals, tert-butyl {(1R,2S,5S)-2-amino-5-[(dimethylamino)carbonyl]cyclohexyl}carbamate oxalate]
transformation of anhydrous crystals to monohydrate crystals [2]: transformed to monohydrate crystals

CN(C)C(=O)[C@H]1CC[C@H](N)[C@H](NC(=O)OC(C)(C)C)C1 [Form 1 monohydrate crystals, tert-butyl {(1R,2S,5S)-2-amino-5-[(dimethylamino)carbonyl]cyclohexyl}carbamate oxalate monohydrate]
crystal transformation when left standing ([2]; left at room temperature for approximately 2 hours): transformed to Form 2 monohydrate crystals

CN(C)C(=O)[C@H]1CC[C@H](N)[C@H](NC(=O)OC(C)(C)C)C1 [Form 2 anhydrous crystals, tert-butyl {(1R,2S,5S)-2-amino-5-[(dimethylamino)carbonyl]cyclohexyl}carbamate oxalate]
transformation of anhydrous crystals to monohydrate crystals [2]: hardly transformed to monohydrate crystals
hygroscopicity [3]: much less hygroscopic

From patent publication US8901345B2, “Process for preparation of optically active diamine derivative salt” (Daiichi Sankyo Company, Limited, priority 2010, dated 2014)
